Data: PMC6182381, “Population Pharmacokinetics and Exposure-Response Relationships of Naldemedine” (Pharmaceutical Research, 2018)
Read-outs that look alike come from different tables or passages of the source.

Key:
[1] = set-up: method as in earlier work; settings: oral 2 mg [14C]-labeled naldemedine; cited from earlier work
[2] = Population PK analysis of plasma naldemedine concentrations (NONMEM, 2-compartment model); type: in vivo, human; settings: for AUC: human, plasma, oral
Method: A population PK model was developed with pooled naldemedine concentrations from healthy subjects, patients with chronic non-cancer pain and OIC, and cancer patients with OIC as described in Table I. Blood sampling times for PK analysis in each study are shown in Supplemental Table S1. All studies were performed in accordance with the Declaration of Helsinki, the International Conference on Harmonization (ICH) E6 Guidance for Good Clinical Practice and all other applicable regulatory requirements. Study protocols were approved by the responsible institutional review boards. Written informed consent for each clinical study was obtained from all subjects.
Background data available for subjects were summarized and used as candidate covariates: age, body weight, body mass index (BMI), albumin (ALBU), aspartate aminotransferase (AST) and alanine aminotransferase (ALT), total bilirubin (Tbil), and creatinine clearance (CLcr) at baseline as continuous data, and gender (male, female), race/ethnicity (“White” or “non-White”, “Japanese” or “non-Japanese”, “Hispanic or Latino” or “non-Hispanic or non-Latino”), health status (healthy subjects/ Patients with chronic non-cancer pain and OIC/ Cancer patients with OIC), dosing conditions (dosing in the fasted/fed state, with/without concomitant use of P-gp/CYP3A inhibitor/inducer), and formulation (“solution or suspension”, “phase 1 or 2 tablet”, “phase 3 tablet”) as categorical data. Background data at baseline were obtained from observations prior to or on the first day of dosing, or at screening if this value was not available. Categorical age (<65 years or ≥ 65 years) was also used. CLcr was calculated using the Cockcroft-Gault eq. ([12]). Data from the concomitant treatment period in the phase 1 DDI studies [1202 V9218, 1403V921D, and 1502V921E]), in which co-administrations of P-gp/CYP3A inhibitor/inducer (cyclosporine, rifampin, itraconazole, or fluconazole) with naldemedine were designed as the worst case scenario for each inhibitor/inducer (single dose of cyclosporine 600 mg, rifampin 600 mg for 17 days, itraconazole 200 mg for 7 days, fluconazole 200 mg for 7 days), were excluded from the population PK analysis because they were not clinically relevant to the OIC treatment. Food condition was assumed as fasted in phase 2b studies (1107 V9221 and 1108 V9222), in which the date/time of food intake had not been recorded. Food condition was defined as fasted in cases where naldemedine was administered more than 1 h after the food intake in phase 3 studies (1314 V9231, 1315 V9232, 1331 V9236, 1336 V9238, and 1339 V9239).
The bioanalytical methods for determination of concentrations of naldemedine and its metabolites in human plasma were validated with the lower limit of quantification (LLOQ) being 0.01 ng/ml for naldemedine ([11]). Plasma samples were analyzed after solid phase extraction by a liquid chromatography/mass spectrometry/mass spectrometry (LC/MS/MS) method using the positive ion mode and multiple reaction monitoring. All the analytical methods were validated across the calibration range with respect to selectivity, recovery, accuracy, precision, and stability under a variety of conditions.
The population PK analysis was performed by using the non-linear mixed effect modeling software NONMEM (version 7.3, ICON Development Solutions, US), with PREDPP library and NM-TRAN preprocessor ([13]). To support analyses by NONMEM, Perl-speaks-NONMEM (PsN) (version 4.2) and Xpose (version 4.2.1) were used ([14]). The first order conditional estimation with interaction (FOCE-I) method was used for the analysis.
The PK profiles of naldemedine were examined using conventional compartment disposition models with first order absorption based on the PK in healthy volunteers ([11]). To determine the basic structural PK model for naldemedine, 1-, 2- and 3-compartment models with first order absorption were tested. […]

[3] = 1314V9231_1315V9232 (Phase 3), 0.2 mg
[4] = final model, bootstrap estimates

CC(C)(NC(=O)C1=C(O)[C@@H]2Oc3c(O)ccc4c3[C@@]23CCN(CC2CC2)[C@H](C4)[C@]3(O)C1)c1nc(-c2ccccc2)no1 [naldemedine]
total radioactivity excreted in feces [1]: 35 % of the administered dose | total radioactivity excreted in urine [1]: 57 % of the administered dose | Empirical Bayesian-estimated AUCss, Max ([2]; 1107V9221 (Phase 2b), 0.1 mg): 13.49 ng·h/mL | Empirical Bayesian-estimated AUCss, Min ([2]; 1107V9221 (Phase 2b), 0.1 mg): 7.02 ng·h/mL | Empirical Bayesian-estimated AUCss, Max ([2]; 1107V9221 (Phase 2b), 0.2 mg): 51.36 ng·h/mL | Empirical Bayesian-estimated AUCss, Min ([2]; 1107V9221 (Phase 2b), 0.2 mg): 12.66 ng·h/mL | Empirical Bayesian-estimated AUCss, Max ([2]; 1107V9221 (Phase 2b), 0.4 mg): 74.93 ng·h/mL | Empirical Bayesian-estimated AUCss, Min ([2]; 1107V9221 (Phase 2b), 0.4 mg): 25.78 ng·h/mL | Empirical Bayesian-estimated AUCss, Max [2, 3]: 92.1 ng·h/mL | Empirical Bayesian-estimated AUCss, Min [2, 3]: 5.669 ng·h/mL | Empirical Bayesian-estimated CL/F, Mean ([2]; 1314V9231_1315V9232, Age 65 -< 75): 7.63 L/h | Empirical Bayesian-estimated CL/F, Mean ([2]; 1314V9231_1315V9232, Age < 65): 8.89 L/h | Empirical Bayesian-estimated CL/F, Mean ([2]; 1314V9231_1315V9232, Age >= 65): 7.61 L/h | Empirical Bayesian-estimated CL/F, Mean ([2]; 1314V9231_1315V9232, Age >= 75): 7.54 L/h | Empirical Bayesian-estimated CL/F, Mean ([2]; 1314V9231_1315V9232, Asian): 13.1 L/h | Empirical Bayesian-estimated CL/F, Mean ([2]; 1314V9231_1315V9232, Black): 7.51 L/h | Empirical Bayesian-estimated CL/F, Mean ([2]; 1314V9231_1315V9232, Female): 8.48 L/h | Empirical Bayesian-estimated CL/F, Mean ([2]; 1314V9231_1315V9232, Male): 9.08 L/h | Empirical Bayesian-estimated CL/F, Mean ([2]; 1314V9231_1315V9232, OIC non-Cancer): 8.73 L/h | Empirical Bayesian-estimated CL/F, Mean ([2]; 1314V9231_1315V9232, White): 9.00 L/h | Empirical Bayesian-estimated CL/F, Mean ([2]; 1314V9231_1315V9232, non-White): 7.59 L/h | Empirical Bayesian-estimated CL/F, Mean ([2]; 1314V9231_1315V9232, race Others): 6.36 L/h | Empirical Bayesian-estimated CL/F, Mean ([2]; 1331V9236 (cancer patients), Age 65 -< 75): 7.15 L/h | Empirical Bayesian-estimated CL/F, Mean ([2]; 1331V9236 (cancer patients), Age < 65): 7.51 L/h | Empirical Bayesian-estimated CL/F, Mean ([2]; 1331V9236 (cancer patients), Age >= 65): 7.15 L/h | Empirical Bayesian-estimated CL/F, Mean ([2]; 1331V9236 (cancer patients), Age >= 75): 7.16 L/h | Empirical Bayesian-estimated CL/F, Mean ([2]; 1331V9236 (cancer patients), Asian): 7.34 L/h | Empirical Bayesian-estimated CL/F, Mean ([2]; 1331V9236 (cancer patients), Female): 6.54 L/h | Empirical Bayesian-estimated CL/F, Mean ([2]; 1331V9236 (cancer patients), Male): 7.85 L/h | Empirical Bayesian-estimated CL/F, Mean ([2]; 1331V9236 (cancer patients), non-White): 7.34 L/h | Empirical Bayesian-estimated CL/F, Mean ([2]; 1331V9236, OIC Cancer): 7.34 L/h | ALAG ([2]; base model): 0.195 h | CL/F ([2]; base model): 8.20 L/h | Inter-individual variability of CL/F ([2]; base model): 40.5 CV% | Inter-individual variability of Ka ([2]; base model): 168.2 CV% | Inter-individual variability of Q/F ([2]; base model): 50.5 CV% | Inter-individual variability of Vc/F ([2]; base model): 38.5 CV% | Inter-individual variability of Vp/F ([2]; base model): 37.7 CV% | Intra-individual variability, proportional ([2]; base model): 25.6 CV% | Ka ([2]; base model): 3.81 h⁻¹ | Q/F ([2]; base model): 5.02 L/h | Vc/F ([2]; base model): 83.6 L | Vp/F ([2]; base model): 43.2 L | AUC ([2]; both sexes, 0.2 mg, reference population, 0.2 mg once daily, read-out: typical AUCss): 22 ng·h/mL | decrease of population predicted AUCss vs reference population ([2]; covariates at extreme values): 25% | increase of population predicted AUCss vs reference population ([2]; covariates at extreme values): 76% | ALAG ([2]; final model): 0.195 h | Inter-individual variability of CL/F ([2]; final model): 37.9 CV% | Inter-individual variability of Ka ([2]; final model): 161.2 CV% | Inter-individual variability of Q/F ([2]; final model): 46.3 CV% | Inter-individual variability of Vc/F ([2]; final model): 25.3 CV% | Inter-individual variability of Vp/F ([2]; final model): 36.3 CV% | Intra-individual variability, proportional ([2]; final model): 25.7 CV% | Q/F ([2]; final model): 4.77 L/h | THETA (7), effect of non-Cancer OIC patients on Vc/F ([2]; final model): 1.20 | THETA (8), effect of Cancer patients with OIC on Vc/F ([2]; final model): 1.27 | THETA (9), effect of fed condition on Vc/F ([2]; final model): 1.12 | THETA (11), exponent of Age/52 on Ka ([2]; final model): −1.16 | Vp/F ([2]; final model): 41.8 L | ALAG, bootstrap median [2, 4]: 0.196 h | CL/F, THETA (1), bootstrap median [2, 4]: 9.15 L/h | Inter-individual variability of CL/F, bootstrap median [2, 4]: 38.6 CV% | Inter-individual variability of Ka, bootstrap median [2, 4]: 161.0 CV% | Inter-individual variability of Q/F, bootstrap median [2, 4]: 47.5 CV% | Inter-individual variability of Vc/F, bootstrap median [2, 4]: 25.2 CV% | Inter-individual variability of Vp/F, bootstrap median [2, 4]: 36.2 CV% | Intra-individual variability, proportional, bootstrap median [2, 4]: 25.5 CV% | Ka, THETA (10), bootstrap median [2, 4]: 2.90 h⁻¹ | Q/F, bootstrap median [2, 4]: 4.73 L/h | THETA (7), non-Cancer on Vc/F, bootstrap median [2, 4]: 1.19 | THETA (8), Cancer on Vc/F, bootstrap median [2, 4]: 1.28 | THETA (9), fed condition on Vc/F, bootstrap median [2, 4]: 1.12 | THETA (11), Age on Ka, bootstrap median [2, 4]: −1.23 | Vc/F, THETA (6), bootstrap median [2, 4]: 76.0 L | Vp/F, bootstrap median [2, 4]: 41.6 | Ka, THETA (10) ([2]; final model, age 52): 2.94 h⁻¹ | Vc/F, THETA (6) ([2]; final model, healthy subjects, body weight 76 kg, fasted): 75.9 L | Vc/F ([2]; final model, reference population: 76 kg, non-cancer OIC patients, fasted): 91.1 L | CL/F, THETA (1) ([2]; final model, reference: 52-year-old, male, White, CLcr 108 ml/min): 9.10 L/h | AUC ([2]; 0.1 mg, 1107V9221 (Phase 2b), 0.1 mg, read-out: Empirical Bayesian-estimated AUCss, Geometric Mean): 10.2 ng·h/mL | AUC ([2]; 0.1 mg, 1107V9221 (Phase 2b), 0.1 mg, read-out: Empirical Bayesian-estimated AUCss, Mean): 10.5 ng·h/mL | AUC ([2]; 0.1 mg, 1107V9221 (Phase 2b), 0.1 mg, read-out: Empirical Bayesian-estimated AUCss, Median): 10.4 ng·h/mL | AUC ([2]; 0.2 mg, 1107V9221 (Phase 2b), 0.2 mg, read-out: Empirical Bayesian-estimated AUCss, Geometric Mean): 20.3 ng·h/mL | AUC ([2]; 0.2 mg, 1107V9221 (Phase 2b), 0.2 mg, read-out: Empirical Bayesian-estimated AUCss, Mean): 22.1 ng·h/mL | AUC ([2]; 0.2 mg, 1107V9221 (Phase 2b), 0.2 mg, read-out: Empirical Bayesian-estimated AUCss, Median): 20.2 ng·h/mL | AUC ([2]; 0.2 mg, 1314V9231_1315V9232 (Phase 3), 0.2 mg, read-out: Empirical Bayesian-estimated AUCss, Geometric Mean): 25.1 ng·h/mL | AUC ([2]; 0.2 mg, 1314V9231_1315V9232 (Phase 3), 0.2 mg, read-out: Empirical Bayesian-estimated AUCss, Mean): 27.5 ng·h/mL | AUC ([2]; 0.2 mg, 1314V9231_1315V9232 (Phase 3), 0.2 mg, read-out: Empirical Bayesian-estimated AUCss, Median): 24.5 ng·h/mL | AUC ([2]; 0.4 mg, 1107V9221 (Phase 2b), 0.4 mg, read-out: Empirical Bayesian-estimated AUCss, Geometric Mean): 41.6 ng·h/mL | AUC ([2]; 0.4 mg, 1107V9221 (Phase 2b), 0.4 mg, read-out: Empirical Bayesian-estimated AUCss, Mean): 43.8 ng·h/mL | AUC ([2]; 0.4 mg, 1107V9221 (Phase 2b), 0.4 mg, read-out: Empirical Bayesian-estimated AUCss, Median): 38.2 ng·h/mL
